Experimental data: ChEMBL document CHEMBL6121006, “Marine natural product-inspired discovery of novel BRD4 inhibitors with anti-inflammatory activity” (Eur J Med Chem, 2025)
Calls of active or inactive are those of the source. The calls are words filed in the database; no cut-off is given here.

Tests used:
[1] = Toxicity in C57BL/6 mouse effect on lung at 100 mg/kg, po measured after 24 hrs; type: organism-based; conditions: in vivo
Mus musculus [2] = experiment: Antiinflammatory activity against LPS-induced C57BL/6 mouse acute inflammation model assessed as rescue of increased inflammatory cell infiltration in kidney at 50 to 100 mg/kg, po pre-administered for 2 hrs followed by LPS stimulation for 6 hrs; type: functional, organism-based; conditions: dose 50-100 mg/kg, time 8.0 hrs
[3] = target: T1, Bromodomain-containing protein 4 (Homo sapiens, UniProt O60885); experiment: Inhibition of human recombinant BRD4 BD1 (42 to 167 residues) extracted from Escherichia coli BL21 (DE3) at 10 uM incubated for 2 hrs by TR-FRET assay relative to control
Mus musculus [4] = experiment: Antiinflammatory activity against LPS-induced C57BL/6 mouse acute inflammation model assessed as improvement of excessive inflammatory cell infiltration in liver at 50 to 100 mg/kg, po pre-administered for 2 hrs followed by LPS stimulation for 6 hrs; type: functional, organism-based; conditions: dose 50-100 mg/kg, time 8.0 hrs
Mus musculus [5] = experiment: Antiinflammatory activity against LPS-induced C57BL/6 mouse acute inflammation model assessed as reduction of renal injury at 100 mg/kg, po pre-administered for 2 hrs followed by LPS stimulation for 6 hrs; type: functional, organism-based; conditions: time 8.0 hrs
[6] = target: Bromodomain-containing protein 3 (Homo sapiens) (UniProt Q15059); experiment: Inhibition of BRD3 BD1 (unknown origin) at 1 uM incubated for 2 hrs by TR-FRET assay relative to control
[7] = Toxicity in C57BL/6 mouse effect on kidney at 100 mg/kg, po measured after 24 hrs; type: organism-based; conditions: in vivo
RAW264.7 [8] = experiment: Cytotoxicity against mouse RAW264.7 cells at 20 uM measured after 24 hrs by CCK8 method; type: functional, cell-based
[9] = target: T1, Bromodomain-containing protein 4; experiment: Induction of thermal stabilization of human recombinant BRD4 […] (42 to 167 residues) extracted from Escherichia coli BL21 (DE3) incubated for 30 mins by thermal shift assay
Mus musculus [10] = experiment: Antiinflammatory activity against LPS-induced C57BL/6 mouse acute inflammation model assessed as improvement of distorted hepatic lobular structure in liver at 50 to 100 mg/kg, po pre-administered for 2 hrs followed by LPS stimulation for 6 hrs; type: functional, organism-based; conditions: dose 50-100 mg/kg, time 8.0 hrs
Mus musculus [11] = experiment: Antiinflammatory activity against LPS-induced C57BL/6 mouse acute inflammation model assessed as decrease in number of interstitial vacuoles at 100 mg/kg, po pre-administered for 2 hrs followed by LPS stimulation for 6 hrs; type: functional, organism-based; conditions: time 8.0 hrs
[12] = target: T2, ATPase family AAA domain-containing protein 2 (Homo sapiens) (UniProt Q6PL18); experiment: Inhibition of ATAD2A (unknown origin) at 1 uM incubated for 2 hrs by TR-FRET assay relative to control
T2 sequence (whole entry): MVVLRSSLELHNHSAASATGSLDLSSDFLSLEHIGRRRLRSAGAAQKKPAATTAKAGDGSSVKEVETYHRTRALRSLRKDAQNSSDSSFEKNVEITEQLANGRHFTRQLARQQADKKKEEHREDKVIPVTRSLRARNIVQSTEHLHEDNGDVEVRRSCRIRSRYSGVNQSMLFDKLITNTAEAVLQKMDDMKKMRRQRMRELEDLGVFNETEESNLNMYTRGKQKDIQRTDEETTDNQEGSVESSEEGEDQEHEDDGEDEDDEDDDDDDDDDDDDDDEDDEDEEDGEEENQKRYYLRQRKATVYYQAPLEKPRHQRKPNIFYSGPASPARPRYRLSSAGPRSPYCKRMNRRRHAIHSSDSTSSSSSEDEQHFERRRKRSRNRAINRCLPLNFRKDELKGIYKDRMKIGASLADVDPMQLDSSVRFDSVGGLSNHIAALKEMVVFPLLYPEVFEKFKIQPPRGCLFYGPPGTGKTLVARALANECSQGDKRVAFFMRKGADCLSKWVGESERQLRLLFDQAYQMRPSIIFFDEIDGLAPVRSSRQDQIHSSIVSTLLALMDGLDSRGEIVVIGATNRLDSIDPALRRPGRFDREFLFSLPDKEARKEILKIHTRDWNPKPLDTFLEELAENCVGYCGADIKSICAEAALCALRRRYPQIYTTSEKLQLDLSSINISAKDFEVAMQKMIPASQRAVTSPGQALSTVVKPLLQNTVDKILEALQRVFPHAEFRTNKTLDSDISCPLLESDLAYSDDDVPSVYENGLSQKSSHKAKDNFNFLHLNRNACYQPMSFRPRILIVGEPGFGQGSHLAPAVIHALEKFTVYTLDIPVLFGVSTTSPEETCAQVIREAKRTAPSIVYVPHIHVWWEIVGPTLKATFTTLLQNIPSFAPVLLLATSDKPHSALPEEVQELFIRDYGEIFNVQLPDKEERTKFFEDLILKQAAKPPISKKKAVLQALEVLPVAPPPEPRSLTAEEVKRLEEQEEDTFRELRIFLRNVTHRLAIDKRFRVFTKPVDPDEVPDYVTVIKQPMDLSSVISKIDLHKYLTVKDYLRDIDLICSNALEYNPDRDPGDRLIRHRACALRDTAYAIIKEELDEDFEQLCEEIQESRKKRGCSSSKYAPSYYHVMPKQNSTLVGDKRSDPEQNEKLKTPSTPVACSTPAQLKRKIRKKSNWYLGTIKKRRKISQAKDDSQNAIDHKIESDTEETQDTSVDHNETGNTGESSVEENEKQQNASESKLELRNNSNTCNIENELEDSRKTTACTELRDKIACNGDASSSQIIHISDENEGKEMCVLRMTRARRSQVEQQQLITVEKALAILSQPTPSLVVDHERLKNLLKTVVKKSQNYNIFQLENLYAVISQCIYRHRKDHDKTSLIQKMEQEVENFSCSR

Mus musculus [13] = experiment: Antiinflammatory activity against LPS-induced C57BL/6 mouse acute inflammation model assessed as increase in proportion of normal renal tubules at 100 mg/kg, po pre-administered for 2 hrs followed by LPS stimulation for 6 hrs; type: functional, organism-based; conditions: time 8.0 hrs
RAW264.7 [14] = experiment: Anti-inflammatory activity in mouse RAW264.7 cells assessed as inhibition of LPS-induced IL-6 expression preincubated with compound for 2 hrs followed by LPS stimulation and measured after 6 hrs by RT-qPCR analysis; type: functional, cell-based; conditions: dose 2.5-20 µM, time 8.0 hrs
Mus musculus [15] = experiment: Antiinflammatory activity against LPS-induced C57BL/6 mouse acute inflammation model assessed as improvement of hepatic necrosis in liver at 50 to 100 mg/kg, po pre-administered for 2 hrs followed by LPS stimulation for 6 hrs; type: functional, organism-based; conditions: dose 50-100 mg/kg, time 8.0 hrs
THP-1 [16] = experiment: Anti-inflammatory activity in human THP-1 cells assessed as inhibition of LPS-induced IL-6 level preincubated with compound for 2 hrs followed by LPS stimulation and measured after 22 hrs by ELISA method; type: functional, cell-based; conditions: dose 2.5-20 µM, time 24.0 hrs
Mus musculus [17] = experiment: Antiinflammatory activity against C57BL/6 mouse acute inflammation model assessed as reduction in LPS induced lung destruction at 50 to 100 mg/kg, po pre-administered for 2 hrs followed by LPS stimulation for 6 hrs; type: functional, organism-based; conditions: dose 50-100 mg/kg, time 8.0 hrs
THP-1 [18] = experiment: Anti-inflammatory activity in human THP-1 cells assessed as inhibition of LPS-induced TNF-alpha level preincubated with compound for 2 hrs followed by LPS stimulation and measured after 22 hrs by ELISA method; type: functional, cell-based; conditions: dose 2.5-20 µM, time 24.0 hrs

Sequence of Bromodomain-containing protein 3 (Homo sapiens) (Q15059 2-726 limits assumed): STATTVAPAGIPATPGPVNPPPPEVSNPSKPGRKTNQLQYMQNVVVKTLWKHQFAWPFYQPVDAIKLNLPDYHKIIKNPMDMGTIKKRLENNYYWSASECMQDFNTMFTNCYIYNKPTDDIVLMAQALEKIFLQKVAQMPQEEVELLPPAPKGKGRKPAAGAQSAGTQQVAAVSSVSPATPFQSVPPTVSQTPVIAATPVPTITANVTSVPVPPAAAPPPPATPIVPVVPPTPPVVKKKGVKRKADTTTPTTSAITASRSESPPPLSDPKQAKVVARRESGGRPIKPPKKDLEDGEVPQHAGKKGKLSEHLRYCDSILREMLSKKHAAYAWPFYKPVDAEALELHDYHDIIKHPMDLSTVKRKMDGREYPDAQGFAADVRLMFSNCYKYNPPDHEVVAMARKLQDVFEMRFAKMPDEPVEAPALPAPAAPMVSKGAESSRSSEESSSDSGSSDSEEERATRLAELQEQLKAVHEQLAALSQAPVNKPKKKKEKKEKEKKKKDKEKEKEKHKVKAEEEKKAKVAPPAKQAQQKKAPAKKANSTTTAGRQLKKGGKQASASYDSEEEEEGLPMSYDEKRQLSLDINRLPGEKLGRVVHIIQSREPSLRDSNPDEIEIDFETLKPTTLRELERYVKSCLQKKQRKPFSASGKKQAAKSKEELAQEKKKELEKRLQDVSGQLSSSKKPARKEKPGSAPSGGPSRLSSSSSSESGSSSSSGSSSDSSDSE

inhibition [3]: 81%
inhibition [6]: 25%
Activity [9]: Active
inhibition [12]: 5%
Structure (SMILES): COc1ccc(/C=C/c2nc3cc(OC)cc(OC)c3c(=O)[nH]2)cc1
Activity [1]: Non-toxic
Activity (Mus musculus [2]): Active
Activity (Mus musculus [4]): Active
Activity (Mus musculus [5]): Active
Activity [7]: Non-toxic
Activity (RAW264.7 [8]): inactive
Activity (Mus musculus [10]): Active
Activity (Mus musculus [11]): Active
Activity (Mus musculus [13]): Active
Activity (RAW264.7 [14]): Dose-dependent-effect
Activity (Mus musculus [15]): Active
Activity (THP-1 [16]): Dose-dependent-effect
Activity (Mus musculus [17]): Active
Activity (THP-1 [18]): Dose-dependent-effect
